From PubChem BioAssay (NCI)
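Tested at 5 concentrations; 48 h exposure; 96-well plates; endpoints linearly interpolated, else capped at highest concentration. GI50 is the concentration that inhibits growth by half. The concentration for full growth arrest is given as TGI.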

Experiments:
Test in all cases: NCI-60 cell line screen, 48 h
HCT-15 colon = system: HCT-15 colon
SF-295 CNS = system: SF-295 CNS
OVCAR-8 ovarian = system: OVCAR-8 ovarian
COLO 205 colon = system: COLO 205 colon
SF-268 CNS = system: SF-268 CNS
SR leukemia = system: SR leukemia
K-562 leukemia = system: K-562 leukemia
SN12C renal = system: SN12C renal
HCT-116 colon = system: HCT-116 colon
BT-549 breast = system: BT-549 breast
SF-539 CNS = system: SF-539 CNS
NCI/ADR-RES ovarian = system: NCI/ADR-RES ovarian
UACC-62 melanoma = system: UACC-62 melanoma
IGROV1 ovarian = system: IGROV1 ovarian
HOP-62 NSCLC = system: HOP-62 NSCLC
SNB-19 CNS = system: SNB-19 CNS
HCC-2998 colon = system: HCC-2998 colon
HT29 colon = system: HT29 colon
HOP-92 NSCLC = system: HOP-92 NSCLC
NCI-H23 lung = system: NCI-H23 lung
NCI-H522 lung = system: NCI-H522 lung
T-47D breast = system: T-47D breast
786-0 renal = system: 786-0 renal
A549 NSCLC = system: A549 NSCLC
SK-MEL-28 melanoma = system: SK-MEL-28 melanoma
HL-60(TB) leukemia = system: HL-60(TB) leukemia
DU-145 prostate = system: DU-145 prostate
OVCAR-5 ovarian = system: OVCAR-5 ovarian
CCRF-CEM leukemia = system: CCRF-CEM leukemia
UACC-257 melanoma = system: UACC-257 melanoma
SK-MEL-2 melanoma = system: SK-MEL-2 melanoma
OVCAR-3 ovarian = system: OVCAR-3 ovarian
CAKI-1 renal = system: CAKI-1 renal
UO-31 renal = system: UO-31 renal
MDA-MB-435 = system: MDA-MB-435
SK-MEL-5 melanoma = system: SK-MEL-5 melanoma
ACHN renal = system: ACHN renal
SK-OV-3 ovarian = system: SK-OV-3 ovarian
EKVX NSCLC = system: EKVX NSCLC
M14 melanoma = system: M14 melanoma
A498 renal = system: A498 renal
OVCAR-4 ovarian = system: OVCAR-4 ovarian
TK-10 renal = system: TK-10 renal
U251 CNS = system: U251 CNS
NCI-H226 lung = system: NCI-H226 lung
MCF7 breast = system: MCF7 breast
PC-3 prostate = system: PC-3 prostate
SNB-75 CNS = system: SNB-75 CNS
SW-620 colon = system: SW-620 colon
HS 578T breast = system: HS 578T breast
RPMI-8226 leukemia = system: RPMI-8226 leukemia
NCI-H460 lung = system: NCI-H460 lung
MDA-MB-231 breast = system: MDA-MB-231 breast
KM12 colon = system: KM12 colon
MOLT-4 leukemia = system: MOLT-4 leukemia
LOX IMVI melanoma = system: LOX IMVI melanoma
MALME-3M melanoma = system: MALME-3M melanoma

Cc1cc(NCCCN(C)C)c2ccc3c(ccc4c(NCCCN(C)C)cc(C)nc43)c2n1
GI50 (HCT-15 colon): 191 nM
TGI (HCT-15 colon): 543 nM
GI50 (SF-295 CNS): 205 nM
TGI (SF-295 CNS): 745 nM
GI50 (OVCAR-8 ovarian): 114 nM
TGI (OVCAR-8 ovarian): 295 nM
GI50 (COLO 205 colon): 183 nM
TGI (COLO 205 colon): 408 nM
GI50 (SF-268 CNS): 176 nM
TGI (SF-268 CNS): 393 nM
GI50 (SR leukemia): 354 nM
TGI (SR leukemia): > 100000 nM
GI50 (K-562 leukemia): 454 nM
TGI (K-562 leukemia): > 100000 nM
GI50 (SN12C renal): 157 nM
TGI (SN12C renal): 553 nM
GI50 (HCT-116 colon): 170 nM
TGI (HCT-116 colon): 439 nM
GI50 (BT-549 breast): 1850 nM
TGI (BT-549 breast): 3530 nM
GI50 (SF-539 CNS): 193 nM
TGI (SF-539 CNS): 487 nM
GI50 (NCI/ADR-RES ovarian): 583 nM
TGI (NCI/ADR-RES ovarian): 3380 nM
GI50 (UACC-62 melanoma): 283 nM
TGI (UACC-62 melanoma): 930 nM
GI50 (IGROV1 ovarian): 152 nM
TGI (IGROV1 ovarian): 377 nM
GI50 (HOP-62 NSCLC): 196 nM
TGI (HOP-62 NSCLC): 489 nM
GI50 (SNB-19 CNS): 181 nM
TGI (SNB-19 CNS): 514 nM
GI50 (HCC-2998 colon): 134 nM
TGI (HCC-2998 colon): 323 nM
GI50 (HT29 colon): 149 nM
TGI (HT29 colon): 503 nM
GI50 (HOP-92 NSCLC): 66.5 nM
TGI (HOP-92 NSCLC): 298 nM
GI50 (NCI-H23 lung): 230 nM
TGI (NCI-H23 lung): 673 nM
GI50 (NCI-H522 lung): 202 nM
TGI (NCI-H522 lung): 554 nM
GI50 (T-47D breast): 521 nM
TGI (T-47D breast): 2540 nM
GI50 (786-0 renal): 202 nM
TGI (786-0 renal): 506 nM
GI50 (A549 NSCLC): 64.3 nM
TGI (A549 NSCLC): 411 nM
GI50 (SK-MEL-28 melanoma): 187 nM
TGI (SK-MEL-28 melanoma): 413 nM
GI50 (HL-60(TB) leukemia): 37.5 nM
GI50 (DU-145 prostate): 159 nM
TGI (DU-145 prostate): 436 nM
GI50 (OVCAR-5 ovarian): 246 nM
TGI (OVCAR-5 ovarian): 909 nM
GI50 (CCRF-CEM leukemia): 158 nM
TGI (CCRF-CEM leukemia): 478 nM
GI50 (UACC-257 melanoma): 199 nM
TGI (UACC-257 melanoma): 499 nM
GI50 (SK-MEL-2 melanoma): 228 nM
TGI (SK-MEL-2 melanoma): 550 nM
GI50 (OVCAR-3 ovarian): 191 nM
TGI (OVCAR-3 ovarian): 444 nM
GI50 (CAKI-1 renal): 217 nM
TGI (CAKI-1 renal): 673 nM
GI50 (UO-31 renal): 231 nM
TGI (UO-31 renal): 557 nM
GI50 (MDA-MB-435): 226 nM
TGI (MDA-MB-435): 539 nM
GI50 (SK-MEL-5 melanoma): 275 nM
TGI (SK-MEL-5 melanoma): 945 nM
GI50 (ACHN renal): 238 nM
TGI (ACHN renal): 744 nM
GI50 (SK-OV-3 ovarian): 230 nM
TGI (SK-OV-3 ovarian): 507 nM
GI50 (EKVX NSCLC): 246 nM
TGI (EKVX NSCLC): 821 nM
GI50 (M14 melanoma): 194 nM
TGI (M14 melanoma): 397 nM
GI50 (A498 renal): 189 nM
TGI (A498 renal): 409 nM
GI50 (OVCAR-4 ovarian): 162 nM
TGI (OVCAR-4 ovarian): 508 nM
GI50 (TK-10 renal): 240 nM
TGI (TK-10 renal): 573 nM
GI50 (U251 CNS): 199 nM
TGI (U251 CNS): 541 nM
GI50 (NCI-H226 lung): 215 nM
TGI (NCI-H226 lung): 880 nM
GI50 (MCF7 breast): 63.5 nM
TGI (MCF7 breast): 302 nM
GI50 (PC-3 prostate): 199 nM
TGI (PC-3 prostate): 609 nM
GI50 (SNB-75 CNS): 165 nM
TGI (SNB-75 CNS): 420 nM
GI50 (SW-620 colon): 185 nM
TGI (SW-620 colon): 493 nM
GI50 (HS 578T breast): 197 nM
TGI (HS 578T breast): 667 nM
GI50 (RPMI-8226 leukemia): 48.9 nM
TGI (RPMI-8226 leukemia): 147 nM
GI50 (NCI-H460 lung): 171 nM
TGI (NCI-H460 lung): 441 nM
GI50 (MDA-MB-231 breast): 175 nM
TGI (MDA-MB-231 breast): 468 nM
GI50 (KM12 colon): 205 nM
TGI (KM12 colon): 570 nM
GI50 (MOLT-4 leukemia): 270 nM
GI50 (LOX IMVI melanoma): 176 nM
TGI (LOX IMVI melanoma): 401 nM
GI50 (MALME-3M melanoma): 244 nM
TGI (MALME-3M melanoma): 894 nM
